Data from patent US9782399B2, “Pharmaceutical compositions which inhibit FKBP52-mediated regulation of androgen receptor function and methods of using same” (The United States of America, as represented by the …, priority 2009, dated 2017).

What was measured:
Format in all cases: cell-based
PSA protein = PSA protein expression in LNCaP cells (Western blotting); conditions: 100 μM, about 48 hours, R1881 0.5 nM
Protocol: The amount of PSA protein expression levels was measured in cells from the prostate cancer cell line LNCaP, after treatment with either control, or about 1 to 100 μM of each of the four FTA compounds identified in the screen (Compounds 1-4). The protein was quantified by an immunohistochemical method using photodetection.
LNCaP cells were maintained in RPMI-1640 medium containing 10% fetal bovine serum. Forty eight hours prior to the experiment, cells were washed several times in serum-free medium and then cultured in RPMI-1640 medium containing 10% charcoal-stripped fetal bovine serum (to remove endogenous androgens). After 48 hours in this medium, Compound 2 was added in a range of concentrations (0, 3, 10, 30, and 100 μM) for 24 hours, at which time the synthetic androgen, methyltrienolone (R1881), (Sigma, St. Louis, Mo.) was added (0.5 nM). After an additional 48 hours, cells were lysed as described in Yano A., et al., Proc. Natl. Acad. Sci. USA, 105:15541-46 (2008), and PSA protein was monitored by polyacrylamide gel electrophoresis and Western blotting with an anti-PSA antibody (sc-80304, Santa Cruz Biotechnology).

AR = target: T1, AR (Homo sapiens, UniProt P10275, T878A); experiment: AR nuclear translocation in LNCaP cells; conditions: about 30 μM pre-treatment 24 hours, R1881 0.1 nM 2 hours
T1 construct: endogenous in cells; host or cells: LNCaP
T1 sequence (P10275 1-920 T878A): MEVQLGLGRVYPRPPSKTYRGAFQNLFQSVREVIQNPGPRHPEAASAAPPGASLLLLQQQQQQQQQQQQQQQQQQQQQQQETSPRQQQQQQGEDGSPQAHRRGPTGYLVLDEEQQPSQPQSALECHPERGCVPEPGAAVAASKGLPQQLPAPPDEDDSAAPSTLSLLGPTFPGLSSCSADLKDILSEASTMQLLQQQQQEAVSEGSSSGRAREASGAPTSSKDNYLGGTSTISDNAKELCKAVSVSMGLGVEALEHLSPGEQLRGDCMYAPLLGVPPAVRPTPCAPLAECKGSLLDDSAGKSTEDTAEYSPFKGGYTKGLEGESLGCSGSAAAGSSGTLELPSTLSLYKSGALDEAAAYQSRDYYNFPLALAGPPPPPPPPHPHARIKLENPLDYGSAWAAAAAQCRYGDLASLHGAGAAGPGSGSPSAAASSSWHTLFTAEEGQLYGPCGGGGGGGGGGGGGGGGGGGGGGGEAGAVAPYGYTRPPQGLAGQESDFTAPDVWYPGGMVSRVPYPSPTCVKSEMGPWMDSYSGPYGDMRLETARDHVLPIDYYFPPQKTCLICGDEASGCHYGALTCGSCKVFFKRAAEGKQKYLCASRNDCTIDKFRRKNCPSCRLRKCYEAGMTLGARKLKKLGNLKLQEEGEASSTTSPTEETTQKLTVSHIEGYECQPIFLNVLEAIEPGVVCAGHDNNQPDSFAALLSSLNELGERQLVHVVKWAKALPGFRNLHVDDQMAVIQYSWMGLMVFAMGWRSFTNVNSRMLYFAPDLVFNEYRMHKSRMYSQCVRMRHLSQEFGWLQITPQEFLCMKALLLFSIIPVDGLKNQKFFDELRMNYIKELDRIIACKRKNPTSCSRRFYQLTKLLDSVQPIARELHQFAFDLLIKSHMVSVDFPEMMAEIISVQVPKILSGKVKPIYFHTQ
Protocol: LNCaP cells were maintained as above. At 50% confluence, cells were washed several times in serum-free RPMI-1640 medium, and re-cultured for 48 hours in RPMI-1640 medium containing 10% charcoal-stripped fetal bovine serum. At that time, compound 2 (termed 21D1C in FIG. 7) was added to a final concentration of about 30 μM. After an additional 24 hours, R1881 was added (0.1 nM) and cells were cultured for an additional 2 hours. At that time, cells were lysed and separated into nuclear and cytosolic fractions following published methods (Schreiber, et al., Nucleic Acids Res., 17:6419 (1989)). Quantification of AR in nucleus and cytosol was performed by Western blotting with an AR-specific antibody following polyacrylamide gel electrophoresis.

PSA mRNA = PSA mRNA quantitation in LNCaP cells (RT-PCR); conditions: 100 μM, 24 hours, R1881
Protocol: For PSA mRNA determination, cells were cultured and treated identically, except that lysis for mRNA extraction was performed 24 hours after addition of R1881. Total RNA was isolated using protocols and reagents contained in the Qiagen RNeasy Kit (Valencia, Calif.). TaqMan real-time quantitative RT-PCR analysis of PSA was performed using previously described techniques Hong J A, et al., Cancer Res., 65:7763-74 (2005); Guo F, et al., Cancer Res., 65:10536-44 (2005). The amount of PSA mRNA level and total protein in cells from the prostate cancer cell line LNCaP was measured after treatment with either control, or about 1 to 100 μM of each of the four compounds identified in the screen (Compounds 1-4). It was known that the expression of PSA mRNA in LNCaP cells is driven by an androgen receptor mediated pathway. The mRNA is quantified by a photodetection method over time. […] At 100 μM, mRNA expression was decreased to 40% of control levels.

ligand-dependent nuclear translocation of AR (AR): significantly prevented
SMILES: O=C(Nc1cccc(Cl)c1Cl)C1CCCCC1 [Compound 2]
PSA protein expression (printed as mRNA expression) (PSA protein): 20 % of control levels
PSA mRNA expression (PSA mRNA): 40 % of control levels
